These results are taken from ChEMBL document CHEMBL3988442, “University of Dundee, Small-Polar-MMV Screening Library” (2021).

Structures are written as SMILES.

Test [1] can be described thus: microbe, parasite or virus in culture. The settings on record: Mycobacterium tuberculosis, 96 h, read-out: pIC50 (converted).
The nature of test [2]: microbe, parasite or virus in culture. As to conditions: Mycobacterium tuberculosis, 72 h, read-out: pIC50 (converted).

As to `NC(c1cncc(Br)c1)C1CC1` (stereo unspecified), the IC50 in test [1] and in test [2] was more than 501 µM in each case.
For the compound `O=C(NCc1nnc2n1CCCCC2)N(Cc1ccncc1)C1CC1`, the IC50 in test [1] and in test [2] was more than 50.1 µM throughout.
`CSCCC(=O)NCc1ccc(C)s1`: the IC50 in test [1] and in test [2] was more than 501 µM throughout.
As for `CCC(O)CNc1ccc(-c2nc(CC(C)C)no2)cn1` (stereo unspecified), the IC50 in test [1] is 26.7 µM; in test [2], 44.9 µM.
The matching figures for `NCC1CN(Cc2c(Cl)cncc2Cl)CCO1` (stereo unspecified): more than 501 µM and 70.8 µM.
The matching figures for `CCc1cccc(S(=O)(=O)N2CC[C@H](N)C2)c1`: more than 501 µM and 183 µM.
The matching figures for `Cc1cc(C)c(C#N)c(N2CCOCC(CO)C2)n1` (stereo unspecified): more than 501 µM and more than 501 µM.
Take `CN1CCN(C(=O)CC2Cc3ccccc3C2)CC1`: the IC50 in test [1] is 43.7 µM; in test [2] it was 96 µM.
As for `Cc1csc(NC(=O)NC(CO)CC(C)C)n1` (stereo unspecified), the IC50 in test [1] is 289 µM; in test [2] it was 341 µM.
Consider `Cc1ccc(S(=O)(=O)NCCN)cc1C(F)(F)F`, for which the IC50 is more than 501 µM in test [1] and 102 µM in test [2].
The like results for `COc1cc(Oc2ccc(C(F)(F)F)cn2)ccc1CN1CCCC1` were, in that order, 16.6 µM and 13.9 µM.
The like results for `CC(C)C[C@H](N)C(=O)N(C)c1ccccc1` were, in that order, 225 µM and 242 µM.
The like results for `CCN1CCN(Cc2cc(C(C)=O)ccc2OC)CC1` were, in that order, more than 501 µM and 367 µM.
`CCn1c(C(=O)N2CCOCC2C)cc2ccccc21` (stereo unspecified): the values for the IC50 in test [1] and in test [2] were 303 µM and 191 µM, respectively.
`COCC(=O)NCCc1cc(Cl)c2c(c1)OCCO2`: the IC50 was 176 µM in test [1] and 216 µM in test [2].
On to `O=C(NCC1(O)COCCN(Cc2cccc(O)c2)C1)c1cscn1` (stereo unspecified), for which the IC50 in test [1] and in test [2] was more than 50.1 µM each time.
In the case of `CCCC1C=CCN1C(=O)c1cc(COc2ccc3c(c2)OCO3)[nH]n1` (stereo unspecified), the IC50 in test [1] is 11.8 µM; in test [2], more than 50.1 µM.
The matching figures for `CS(=O)(=O)NC[C@H]1OC[C@@H]2CCN(CCc3ccccc3)C[C@@H]21`: more than 50.1 µM and more than 50.1 µM.
The like results for `CCNCC(O)COc1ccc(C)cc1OC` (stereo unspecified) were, in that order, 10.5 µM and 218 µM.
The matching figures for `O=S(=O)(CCNc1ccccn1)NCC1CCC1`: 213 µM and 307 µM.
Consider `Cc1cccc(NCCCNC(=O)c2cccs2)n1`, for which the IC50 in test [1] and in test [2] was more than 501 µM in each case.
With `COc1cc(C(=O)N(Cc2cccs2)C2CC2)cc2c1OCCO2`, the IC50 in test [1] and in test [2] was more than 50.1 µM each time.
For `CC(C)c1cccc(S(=O)(=O)N(C)Cc2nnc[nH]2)c1`, the IC50 in test [1] and in test [2] was more than 501 µM in each case.
`CC1CCCN(c2cc(CNS(C)(=O)=O)ccn2)C1` (stereo unspecified): the IC50 in test [1] is 277 µM; in test [2], 449 µM.
Regarding `Cc1cccc(N2CCN(CCCN)CC2)c1`, the IC50 in test [1] and in test [2] was more than 501 µM each time.
For the compound `CN(C)C(=O)CCOC(=O)c1cccc(Cl)c1`, the IC50 in test [1] was more than 501 µM; in test [2], 227 µM.
The matching figures for `COc1ccc(Nc2ncccc2S(N)(=O)=O)cc1`: more than 501 µM and more than 501 µM.
The matching figures for `COC(=O)COc1ccc(C(C)=O)cc1Cl`: 354 µM and 264 µM.
The like results for `Cc1ccc(CNCCOc2ccccn2)o1` were, in that order, 98.7 µM and more than 501 µM.
With `CCn1ccc(C(=O)NC(C)c2ccccc2)n1` (stereo unspecified), the IC50 was 182 µM in test [1] and 84.4 µM in test [2].
The matching figures for `CC(C)c1cccc(S(=O)(=O)N2CCCC2CN)c1` (stereo unspecified): more than 501 µM and 399 µM.
The like results for `COc1ccc(-c2noc(C(C)n3ccnc3)n2)cn1` (stereo unspecified) were, in that order, 442 µM and 300 µM.
The matching figures for `O=C(Cc1cn2ccsc2n1)NCC1CCC1`: 179 µM and 282 µM.
`COc1ccc(-c2ccccc2CCN)c(OC)c1`: the IC50 in test [1] is 41.6 µM; in test [2], 48.2 µM.
Regarding `NCCNS(=O)(=O)c1ccc(F)c(Br)c1`, the IC50 in test [1] and in test [2] was more than 501 µM each time.
With `O=C(NCC1COCCO1)c1cnc2ccccc2c1` (stereo unspecified), the IC50 in test [1] and in test [2] was more than 501 µM in each case.
As to `Nc1nnnn1NCc1cccc(Cl)c1Cl`, the IC50 in test [1] and in test [2] was more than 50.1 µM throughout.
With `COC(=O)[C@H](C)NC(=O)c1cc(-c2cccc(Cl)c2)no1`, the IC50 in test [1] is 26 µM; in test [2], 42.5 µM.
The like results for `Cc1ccc(S(=O)(=O)NC(CN)C2CC2)c(F)c1` (stereo unspecified) were, in that order, more than 501 µM and more than 501 µM.
The matching figures for `CNC(=O)NC(=O)CSc1ccccc1F`: more than 501 µM and more than 501 µM.
For the compound `O=C(NCC1CC1)c1nnc2ccc(Cl)cc2n1`, the IC50 in test [1] was 11.4 µM; in test [2], 5.59 µM.
The like results for `CCCc1nc(C(=O)N2CC(c3ccncc3)C2)cs1` were, in that order, 356 µM and 326 µM.
The like results for `COc1cc(CNC(=O)C(C)OCC(C)C)ccn1` (stereo unspecified) were, in that order, more than 501 µM and more than 501 µM.
The like results for `COc1cccc(CN(C)C(=O)CSc2ccc3c(c2)OCCO3)c1` were, in that order, 25 µM and more than 50.1 µM.
Take `CN1CCc2nc(NC(=O)CC(C)(C)C)sc2C1`: the IC50 in test [1] was 127 µM; in test [2] it was 210 µM.
Take `Cc1ccc(C(=O)NCCNS(=O)(=O)C(C)C)cc1F`: the IC50 is more than 501 µM in test [1] and 155 µM in test [2].
The like results for `O=C(NCCC(O)C(F)(F)F)c1c(O)cc(F)cc1F` (stereo unspecified) were, in that order, 244 µM and 290 µM.
The like results for `COc1cc(OC)c(NC(=O)Cn2ccnc2)cc1Cl` were, in that order, 264 µM and 243 µM.
The like results for `CN(C)c1cc(C(=O)Nc2ccccc2F)ccn1` were, in that order, 321 µM and 237 µM.
As for `NCC1Cc2ccccc21` (stereo unspecified), the IC50 in test [1] is 278 µM; in test [2], 114 µM.
The like results for `CCN1C[C@@H]2[C@@H](OC)CCN(C(=O)Cc3ccsc3)[C@@H]2C1` were, in that order, more than 50.1 µM and more than 50.1 µM.
The matching figures for `CS(=O)(=O)NCCc1csc(N2CCCC2)n1`: more than 501 µM and 132 µM.
The matching figures for `CCC(CO)NC(=O)C1(c2ccc(F)cc2F)CCC1` (stereo unspecified): more than 501 µM and 313 µM.
As for `CCc1ccc(CN2CCOC(Cc3cccc(F)c3)C2)nc1` (stereo unspecified), the IC50 in test [1] is 12.3 µM; in test [2] it was 36.3 µM.
The matching figures for `CCc1nc(CN(C)Cc2nnc(-c3cccs3)o2)cs1`: 8.56 µM and 12.2 µM.
On to `CNC(=O)CN1CCC(OCCCc2ccccc2)C1` (stereo unspecified), for which the IC50 in test [1] was more than 501 µM; in test [2] it was 161 µM.
The matching figures for `CCCn1ccc(NC(=O)c2cccc(C#N)c2)n1`: more than 501 µM and more than 501 µM.
Take `COc1ccccc1NC(=O)c1ccc(C)nc1`: the IC50 in test [1] and in test [2] was more than 501 µM throughout.
In the case of `Cc1nc(C(=O)NCCN2CCCC2)c(C)s1`, the results for the IC50 in test [1] and in test [2] were more than 501 µM and 308 µM, respectively.
As for `NCc1nc(-c2ccc(OC(F)(F)F)cc2)no1`, the IC50 in test [1] is 190 µM; in test [2], 70.7 µM.
On to `Cc1c(C(=O)Nc2ccc3c(c2)OCCO3)cnn1C`, for which the IC50 in test [1] and in test [2] was more than 501 µM in each case.
`COC(=O)CSCc1nc(-c2ccc(Cl)cc2)no1`: the IC50 in test [1] and in test [2] was more than 50.1 µM throughout.
Regarding `NCC(CO)Cc1cc(F)cc(Br)c1` (stereo unspecified), the IC50 in test [1] was 264 µM; in test [2], 305 µM.
The matching figures for `CNC(=O)COc1cccc(OCC2CC2)c1`: 188 µM and more than 501 µM.
For `O=C1CN(CC(=O)N2CCCCCCC2)CCN1`, the IC50 in test [1] and in test [2] was more than 501 µM throughout.
With `O=C(CSc1nnnn1Cc1cccs1)NC1CC1`, the IC50 in test [1] was 216 µM; in test [2], 492 µM.
The like results for `NC(=O)NC(=O)CCN(Cc1ccccc1)CC1CCOCC1` were, in that order, 35.7 µM and 28.7 µM.
The like results for `O=S(=O)(CCc1ccccc1)Cc1nc(C2CC2)no1` were, in that order, 10.7 µM and 10.6 µM.
Take `COc1cccc(S(=O)(=O)CCN2CCC(O)CC2)c1`: the IC50 in test [1] was more than 501 µM; in test [2], 397 µM.
The like results for `O=C(NCC1CC1)c1noc(-c2ccccc2F)n1` were, in that order, 99.7 µM and 16.4 µM.
In the case of `COC(=O)C(C)OC(=O)c1cccnc1SC` (stereo unspecified), the IC50 in test [1] and in test [2] was more than 501 µM in each case.
With `O=C(CCC(F)(F)F)N1CCCC(CO)(CC2CC2)C1` (stereo unspecified), the IC50 in test [1] is 4.11 µM; in test [2], 2.54 µM.
The matching figures for `O=c1[nH]cnc2cccc(O)c12`: more than 501 µM and more than 501 µM.
The like results for `c1ccc(-c2nc(CCNCc3ccncc3)co2)cc1` were, in that order, more than 50.1 µM and more than 50.1 µM.
The like results for `CC(C)c1noc(CN2CCN(C(=O)c3ccc(F)cc3)CC2)n1` were, in that order, more than 50.1 µM and more than 50.1 µM.
Regarding `COC(=O)c1snc(-c2ccccc2)c1N`, the IC50 in test [1] was 97 µM; in test [2], 103 µM.
The matching figures for `C=C(C)CN1C(=O)Nc2ccccc2S1(=O)=O`: more than 501 µM and 349 µM.
The matching figures for `Cc1cc(C(=O)NCc2cccc(F)c2)no1`: 308 µM and 52.9 µM.
The like results for `C=C(C)CSc1nnc(CCNC(=O)OC(C)(C)C)o1` were, in that order, 5.84 µM and 40.4 µM.
For the compound `O=C(CSCc1ccc(Cl)s1)N1CCOCC1`, the values for the IC50 in test [1] and in test [2] were 286 µM and 304 µM, respectively.
The like results for `CC(C)CC1CCN(C(=O)CCn2cnnn2)C1` (stereo unspecified) were, in that order, 77.2 µM and 28.3 µM.
The matching figures for `COCCCNC(=O)C1=Cc2ccccc2OC1`: 115 µM and 119 µM.
With `CCn1nnnc1SCc1cc(C#N)ccc1F`, the IC50 is 87.5 µM in test [1] and 42.7 µM in test [2].
